This is an account of results in patent US11059808B2, “Substituted phenylpyrrolecarboxamides with therapeutic activity in HIV” (New York Blood Center, Inc., priority 2014, dated 2021).

The test system of the assay is cell-to-cell fusion mediated by HIV-1 (HIV-1HXB2 Env). It is filed as cell-based. As to conditions: Cell-Cell fusion Assay.

Method: To assess the ability of NBD-compounds to block cell-to-cell fusion mediated by HIV-1 we performed cell fusion assay as previously described 3^1-3 with some modifications. […] Following fusion of the two cell lines Tat induce the expression of β-gal enzyme. […] The percent inhibition and the IC50 values were calculated using the GraphPad Prism software.

As for `COc1ccnc2[nH]cc(C(=O)C(=O)N3CCN(C(=O)c4ccccc4)C[C@H]3C)c12` [BMS-378806], the IC50 (commonly the point on the concentration scale where inhibition reaches its midpoint) was determined as 14 nM.
